Where two headings read alike, the source gives them in different places. Where a SMILES comes first, the peptide text is derived from it. Bridges are numbered along the chain shown (N, C = ends). [ ]: non-standard residue; d: D form. The star is where a group is joined. X1 = NC[C@@H](CC(=O)*)c1cccc(Cl)c1; X2 = CC[C@H](C)CCCCC(=O)*; Dab = NCC[C@H](N)C(=O)O; Dap = NC[C@H](N)C(=O)O
What was measured:
[1] = test system: polymyxin B-resistant lines of K. pneumoniae (KP-SEN); assay: Cross-resistance of polymyxin B resistant evolved lines, relative MIC; assay type: cell-based, Klebsiella pneumoniae
Description: (§1) To further investigate potential overlaps in resistance mechanisms, we examined the extent of cross-resistance between polymyxin B and other antibiotics that target the bacterial membrane.
(§2) Fig. 7 Cross-resistance of polymyxin B resistant lines to ST and DT permeabilizer antibiotics. […] 3 independently evolved lines from each investigated species were studied, including E. coli (EC), K. pneumoniae (KP), A. baumannii (AB), and P. aeruginosa (PA). Gray color of the main heatmap indicates combinations not tested due to intrinsic resistance of ancestor strain. The additional heatmap to the right depicts genes mutated in each polymyxin B-adapted line and their involvement in specific cellular processes based on KEGG (Kyoto Encyclopedia of Genes and Genomes) and COG (Clusters of Orthologous Genes) databases. The distances between antibiotics were computed using the Euclidean distance method based on the log-transformed MIC values. The clustering was performed using the complete linkage method. […] For detailed information on antibiotic and bacterial strain abbreviations, see Supplementary Data 1. Source data are provided as a Source Data file.
(§3) A robotic liquid handling system was used to automatically prepare a 11 to 16-step serial dilution in 384-well microtiter plates (Greiner). A final concentration of 5 × 10^5 bacterial cells per mL were inoculated into each well containing 60 µL MHB medium. Bacterial cultures were incubated at 37 °C with continuous shaking (Infors shaker, 900 rpm with 3 mm throw) for 18 hours (2 replicates from each). Cell growth was monitored by measuring the optical density (OD600 values, using Biotek Synergy microplate reader). MIC was defined as the antibiotic concentration of complete growth inhibition (i.e., OD600 < 0.05). Relative MIC was calculated as follows:1 relativeMIC=MICevolved/MICancestor […]
(§4) Supplementary Figure 6. Susceptibility of Polymyxin B resistant lines to other ST and DT […]
(§5) dividing the MIC of the evolved line by that of the corresponding ancestor) of 12 polymyxin B resistant lines to ST and DT permeabilizer antibiotics used in this study. Each data point represents a distinct adaptive laboratory evolved polymyxin B resistant line. Boxplots show the median, first and third quartiles, with whiskers showing the 5th and 95th percentiles. P values were calculated using Dunn's post-hoc test with Benjamini-Hochberg correction (NS indicates p > 0.05, ** / **** indicates p < 0.01 / 0.0001, respectively). The resistance level of polymyxin B resistant lines to polymyxin B (PMB), […]
(§6) For detailed information on antibiotic and bacterial strain abbreviations, see Supplementary Table 1. Source data are provided as a Source […]
(§7) (1 picture or pasted object on this page, not shown here)

[2] = test system: polymyxin B-resistant lines of A. baumannii (AB-SEN); assay: as above; assay type: cell-based, Acinetobacter baumannii
Description: as §1, §2, §3, §4, §5, §6, §7

[3] = test system: polymyxin B-resistant lines of P. aeruginosa (PA-SEN); assay: as above; assay type: cell-based, Pseudomonas aeruginosa
Description: as §1, §2, §3, §4, §5, §6, §7

[4] = test system: E. coli ATCC 25922 (SEN) and E. coli NCTC13846 (MDR); parameters: method as in PMID 39805953; details: cited from earlier work
[5] = test system: K. pneumoniae ATCC 10031 (SEN) and K. pneumoniae ATCC 700603 (MDR); parameters: method as in PMID 39805953; details: K. pneumoniae sensitive strain; cited from earlier work
[6] = test system: A. baumannii ATCC 17978 (SEN) and A. baumannii ATCC BAA-1605 (MDR); parameters: method as in PMID 39805953; details: cited from earlier work
[7] = test system: P. aeruginosa ATCC BAA-3107 (SEN) and P. aeruginosa LESB58 (MDR); details: cited from earlier work
Description: page 10: Mobile resistance genes against DT permeabilizer were rare in human-associated microbiomes and clinically relevant pathogens, while they were abundant against ST permeabilizers.

[8] = test system: mutated genes in antibiotic-adapted lines; assay: Whole genome sequencing and comparative mutational analysis of adapted lines; details: lines adapted in laboratory evolution
Description: We focused on the resistance mechanisms of DT permeabilizers and ST permeabilizers (Fig. 5a), as these antibiotics commonly disintegrate the bacterial membrane, and therefore the resistance mechanisms may overlap.
Genes are categorized based on their cellular localization using PSORT (Protein Subcellular Localization Prediction Tool). They are further classified according to their involvement in specific metabolic or resistance pathways using the KEGG (Kyoto Encyclopedia of Genes and Genomes) and COG (Clusters of Orthologous Genes) databases.
To identify potential antibiotic resistance mutations, we selected 2 to 5 lines from the frequency-of-resistance (FoR) and adaptive laboratory evolution (ALE) experiments for whole genome sequencing. Resistant populations were grown overnight in antibiotic-free medium, and DNA was isolated using the GenElute Bacterial Genomic DNA Kit (Sigma), following the manufacturer’s instructions. DNA was eluted in 120 µl of RNAse-free water over two elution steps, and 60 µl of the eluted DNA was further concentrated using the Zymo DNA Clean and Concentrator Kit. DNA concentration was measured with a Qubit Fluorometer and set to 1 ng/µl per sample. Sequencing libraries were prepared using the Nextera XT DNA library preparation kit (Illumina) and sequenced on an Illumina NextSeq 500 platform, generating 2 × 150 bp paired-end reads.
To identify and annotate variants, sequencing reads were mapped to their corresponding reference genomes using the Burrows-Wheeler Aligner (BWA)[75]. PCR duplicates were removed using Picard Mark Duplicates (see http://broadinstitute.github.io/picard) and reads with more than 6 mismatches were discarded. Variants (SNPs and INDELs) were called with Freebayes[76] and filtered using vcffilter[77], retaining only those with a quality score above 100. Rare variants were not excluded, but potential artefacts were manually inspected using IGV[78]. Variants were annotated with SnpEf, keeping only those absent in the ancestor. Mutations appearing in more than nine lines were excluded, as these were likely present in the ancestor. […]

[9] = test system: A. baumannii ATCC 17978 (SEN) and A. baumannii ATCC BAA-1605 (MDR); details: after 60 days of evolution; cited from earlier work
Description: (§8) Using the same set of bacterial strains, we initiated adaptive laboratory evolution with the aim to maximize the level of antibiotic resistance in the populations achieved during a longer, but fixed time period. As expected, resistance levels were generally much higher than those observed in FoR assay. […] For instance, after 60 days of evolution, resistance levels increased by a maximum of fourfold in A. baumannii and in the E. coli sensitive strain e ...

[10] = test system: E. coli ATCC 25922 (SEN) and E. coli NCTC13846 (MDR); details: E. coli sensitive strain, after 60 days of evolution; cited from earlier work
Description: as §8

[11] = KP-SEN, polymyxin B-resistant evolved line 1, MIC evolved/MIC ancestor
[12] = KP-SEN, polymyxin B-resistant evolved line 3, MIC evolved/MIC ancestor
[13] = KP-SEN, polymyxin B-resistant evolved line 7, MIC evolved/MIC ancestor
[14] = polymyxin B-resistant evolved line 1 of KP-SEN, MIC relative to ancestor
[15] = polymyxin B-resistant evolved line 3 of KP-SEN, MIC relative to ancestor
[16] = polymyxin B-resistant evolved line 7 of KP-SEN, MIC relative to ancestor
[17] = AB-SEN, polymyxin B-resistant evolved line 2, MIC evolved/MIC ancestor
[18] = AB-SEN, polymyxin B-resistant evolved line 6, MIC evolved/MIC ancestor
[19] = AB-SEN, polymyxin B-resistant evolved line 9, MIC evolved/MIC ancestor
[20] = polymyxin B-resistant evolved line 2 of AB-SEN, MIC relative to ancestor
[21] = polymyxin B-resistant evolved line 6 of AB-SEN, MIC relative to ancestor
[22] = polymyxin B-resistant evolved line 9 of AB-SEN, MIC relative to ancestor
[23] = PA-SEN, polymyxin B-resistant evolved line 1, MIC evolved/MIC ancestor
[24] = PA-SEN, polymyxin B-resistant evolved line 5, MIC evolved/MIC ancestor
[25] = PA-SEN, polymyxin B-resistant evolved line 7, MIC evolved/MIC ancestor
[26] = polymyxin B-resistant evolved line 1 of PA-SEN, MIC relative to ancestor
[27] = polymyxin B-resistant evolved line 5 of PA-SEN, MIC relative to ancestor
[28] = polymyxin B-resistant evolved line 7 of PA-SEN, MIC relative to ancestor

| Compound | Relative MIC [1, 11] | Relative MIC [1, 12] | Relative MIC [1, 13] | Relative MIC [1, 14] | Relative MIC [1, 15] | Relative MIC [1, 16] | Relative MIC [2, 17] | Relative MIC [2, 18] | Relative MIC [2, 19] | Relative MIC [2, 20] | Relative MIC [2, 21] | Relative MIC [2, 22] | Relative MIC [3, 23] | Relative MIC [3, 24] | Relative MIC [3, 25] | Relative MIC [3, 26] | Relative MIC [3, 27] | Relative MIC [3, 28] | resistance level (relative MIC) after FoR assay [5] | overlap in the set of mutated genes associated with ST permeabilizers [8] [%] | further results |
| --- | --- | --- | --- | --- | --- | --- | --- | --- | --- | --- | --- | --- | --- | --- | --- | --- | --- | --- | --- | --- | --- |
| CC[C@H](C)CCCCC(=O)N[C@@H](CCN)C(=O)N[C@H](C(=O)N[C@@H](CCN)C(=O)N[C@H]1CCNC(=O)[C@H]([C@@H](C)O)NC(=O)[C@H](CCN)NC(=O)[C@H](CCN)NC(=O)[C@H](CC(C)C)NC(=O)[C@@H](Cc2ccccc2)NC(=O)[C@H](CCN)NC1=O)[C@@H](C)O [Polymyxin B] (X2-[Dab]T[Dab][Dab][Dab][dF]L[Dab][Dab]T; lactam 4-C (inferred); N-terminus assumed) | 32 | 64 | 64 | 32 | 64 | 64 | 64 | 1024 | 64 | 64 | 1024 | 64 | 32 | 32 | 8 | 32 | 32 | 8 | no resistant mutants emerged |  | resistance level (relative MIC) after FoR assay ([4]; multidrug-resistant E. coli strain): no resistant mutants emerged; resistance level (relative MIC) after FoR assay ([6]; A. baumannii multidrug-resistant (MDR) strain): more than 128 fold; resistance level (relative MIC) after FoR assay ([6]; A. baumannii sensitive strain): no resistant mutants emerged; increase in resistance level after adaptive laboratory evolution [7]: 32 fold |
| CC(C)c1ccc(Cn2ccc3c4c(N)nc(NC5CC5)nc4ccc32)cc1 [SCH79797] | 1 | 1 | 1 | 1 | 1 | 1 | 1 | 0.5 | 1 | 1 | 0.5 | 1 |  |  |  |  |  |  |  | 0.6 | increase in resistance level after adaptive laboratory evolution [9]: fourfold; increase in resistance level after adaptive laboratory evolution [10]: fourfold |
| CC(C)C[C@@H]1NC(=O)[C@@H](Cc2ccccc2)NC(=O)[C@H](CCN)NC(=O)[C@@H](NC(=O)[C@H](CN)NC(=O)[C@@H](NC(=O)C[C@H](CN)c2cccc(Cl)c2)[C@@H](C)O)CCNC(=O)[C@H]([C@@H](C)O)NC(=O)[C@H](CCN)NC(=O)[C@H](CCN)NC1=O [SPR206] (X1-T[Dap][Dab][Dab][dF]L[Dab][Dab]T; lactam 3-C (inferred); N-terminus assumed) | 32 | 128 | 128 | 32 | 128 | 128 | 128 | 2048 | 128 | 128 | 2048 | 128 | 64 | 64 | 32 | 64 | 64 | 32 | more than 128 fold |  | resistance level (relative MIC) after FoR assay ([4]; E. coli sensitive strain): more than 128 fold; increase in resistance level after adaptive laboratory evolution [7]: 32 fold |
| POL7306 | 1 | 32 | 32 | 1 | 32 | 32 | 32 | 32 | 8 | 32 | 32 | 8 | 1 | 1 | 4 | 1 | 1 | 4 |  | 8.12 |  |
| Tridecaptin M152-P3 |  |  |  |  |  |  |  |  |  |  |  |  |  |  |  |  |  |  |  | 2.5 |  |
| colistin | 32 | 64 | 32 | 32 | 64 | 32 | 32 | 512 | 32 | 32 | 512 | 32 | 32 | 32 | 16 | 32 | 32 | 16 |  |  |  |
